# According to PubChem BioAssay (NCI):
# Several values for one entry are separate records, joined by “and”; a condition that tells them apart may be missing. Equal entries are not always repeated.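 Values below derive from 48-hour exposures of cells grown in 96-well plates, with endpoints linearly interpolated between the two concentrations bracketing the appropriate inhibition level. GI50 marks 50% less growth. TGI: concentration producing complete growth inhibition.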
# What was measured:
# Test in all cases: NCI-60 cell line screen, 48 h
# HCT-15 colon = test system: HCT-15 colon
# K-562 leukemia = test system: K-562 leukemia
# MOLT-4 leukemia = test system: MOLT-4 leukemia
# NCI-H23 lung = test system: NCI-H23 lung
# SK-MEL-28 melanoma = test system: SK-MEL-28 melanoma
# UACC-257 melanoma = test system: UACC-257 melanoma
SMILES,TGI (HCT-15 colon) [µM],TGI (K-562 leukemia),TGI (MOLT-4 leukemia),TGI (NCI-H23 lung) [µM],TGI (SK-MEL-28 melanoma) [µM],TGI (UACC-257 melanoma),GI50 (MOLT-4 leukemia) [µM]
CC1(C)COC2C(N(Cc3ccccc3)Cc3ccccc3)C(=O)N21 (configuration not stated),> 100,82.9 µM,> 100 µM,> 100,> 100,> 100 µM,
COc1ccc(O)c(C(=O)CCC(=O)O)c1,> 100,> 100 µM,> 100 µM,> 100,> 100,29 µM,
CCC1=CCN(c2cc(C)ccn2)OC1c1ccccc1 (configuration not stated),> 100,> 100 µM,> 100 µM,> 100,77.1,> 100 µM,
COc1cc2c(c3c1c(=O)c1ccccc1n3C)C=CC(C)(C)O2,> 100,> 100 µM,> 100 µM,> 100,> 100,> 100 µM,
COC/N=C(\NC#N)NCOC,> 59.4,> 100 µM,> 100 µM,> 100,> 100,> 100 µM,
O=c1cc(-c2ccccc2)[nH]c2cc(F)cc(F)c12,> 100,> 100 µM,> 100 µM,> 100,> 100,> 100 µM,
CN/N=C(/c1nc2ccc([N+](=O)[O-])cc2[nH]c1=O)C(O)c1ccc(C(O)/C(=N\NC)c2nc3ccc([N+](=O)[O-])cc3[nH]c2=O)cc1 (configuration not stated),> 100,> 100 µM,> 100 µM,> 100,> 100,> 100 µM,
O=C1CCC2(c3ccccc3)Nc3ccccc3N12 (configuration not stated),> 100,> 100 µM,> 100 µM,> 100,> 100,> 100 µM,
CC1=Nc2ccccc2SC(c2c(Cl)cccc2Cl)C1 (configuration not stated),2.57,1.71 µM,12.4 µM,2.64,2.69,3.3 µM,
Clc1ccccc1CN1COc2c(ccc3cccnc23)C1,14.8,4.51 µM,6.77 µM,5.34,14.9,8.2 µM,
CC(=O)c1ccc(NC(=O)C(=O)C(C(=O)/C=C/c2ccccc2)C2OC(=O)c3ccccc32)cc1 (configuration not stated),> 100,> 100 µM,> 100 µM,> 100,> 100,> 100 µM,
CC1(C)OC(=S)N(c2ccccc2)C12C=Cc1cc3ccccc3nc1S2 (configuration not stated),> 100,> 100 µM,> 100 µM,> 100,> 100,> 100 µM,
CCOc1cccc2c1N[S@@](=O)S2,> 100,> 100 µM,> 100 µM,> 100,> 100,> 100 µM,
N=c1c2ccccc2sc2nc3ccccc3n12,,> 100 µM,> 100 µM,> 100,> 100,> 100 µM,
CN(C)c1ccc(/C=C(\NC(=O)c2ccccc2)c2nc3ccc4c(c3[nH]2)C(=O)c2ccccc2C4=O)cc1,> 100,> 100 µM,31.3 µM,> 100,> 100,> 100 µM,
COc1ccc(/C=C2\CCC(CCN(C)C)(C3=CCCC3)C2=O)cc1 (configuration not stated),51.4,41.8 µM,51 µM,81.3,35.1,30.8 µM,
COc1ccc(/C=C(\NC(=O)c2ccccc2)c2nc3ccccc3[nH]2)cc1OC,> 100,> 100 µM,> 100 µM,> 100,> 100,> 100 µM,
CCOC(=O)C1Cc2ccc3c4c(ccc(c24)C1)CC(C(=O)OCC)C3,> 100,> 100 µM,> 100 µM,> 100,> 100,> 100 µM,
COC(=O)C(=O)C(CC(=O)Nc1ccc(C)cc1)C(=O)OC (configuration not stated),> 100,> 100 µM,> 100 µM,> 100,> 100,> 100 µM,
C#CCN(N=O)C(=O)ON1C(=O)CCC1=O,> 100,> 100 µM,> 100 µM,> 100,> 100,> 100 µM,
COc1cc(C(=O)N[C@H]2CCc3cc(OC)c(OC)c(OC)c3-c3ccc(SC)c(=O)cc32)cc(OC)c1OC,25,25 µM and > 100 µM,25 µM and > 100 µM,,> 100,19.1 µM and > 100 µM,0.0133
COC(=O)c1cc(=O)nc2cc3cccccc3n12,> 100,> 100 µM,> 100 µM,> 100,> 100,> 100 µM,
C1=Cc2nc1c(-c1ccccc1)c1ccc([nH]1)c(-c1ccccc1)c1nc(c(-c3ccccc3)c3ccc([nH]3)c2-c2ccccc2)C=C1,> 100,> 100 µM,> 100 µM,> 100,> 100,> 100 µM,
COC(=O)C(C(=O)C(=O)Nc1ccc(C)cc1C)c1csc(-n2nc(-c3ccccc3)cc2-c2ccccc2)n1 (configuration not stated),> 100,> 100 µM,> 100 µM,> 100,,> 100 µM,
